How the values were obtained:
Type in all cases: cell-based, human
AGS cells = experiment: Cell cycle distribution by flow cytometry; settings: for Cell Cycle Distribution G0/G1 / Cell Cycle Distribution G2/M / Cell Cycle Distribution S: 24 h, Table 11
Procedure: (§1) The human cancer cells (2×10^5) were cultured in 60-mm Petri dishes and incubated for 24 h. After treated with test compounds for 24 h, the cells were then harvested, washed with PBS resuspended in 200 μL of PBS, and fixed in 800 μL of iced 100% ethanol at −20° C. After being left to stand overnight, the cell pellets were collected by centrifugation, resuspended in 1 mL of hypotonic buffer (0.5% Triton X-100 in PBS and 0.5 μg/mL RNase) and incubated at 37° C. for 30 min. Next, 1 mL of propidium iodide solution (50 μg/mL) was added, and the mixture was allowed to stand on ice for 30 min. Fluorescence emitted from the propidium iodide-DNA complex was quantitated after excitation of the fluorescent dye by FACScan cytometry (Becton Dickinson, San Jose, Calif.).
(§2) The effects of the hydrolyzed PMF-enriched compositions, nobiletin and 70% PMF OPE on cell cycle distribution were studied, following the procedures described in Section 8.4. Results for cell cycle distribution in HL-60 cells, COLO205 cells and AGS cells are provided in Table 5, Table 6 and Table 7, respectively. […] In HL-60 cells, G2/M arrest predominated in cells treated with 6N PMF concentrations ≧5 μM and with 1N PMF concentrations ≧25 μM.
(§3) Compounds A-K were evaluated in terms of their effects in arresting cell cycle progression by observing cell cycle phase distribution in cells treated with the compounds. Cells were treated with 5, 10, 25, 50, and 100 μM of one of compound A-K or DMSO (control) for 24 h and subjected to flow cytometric analysis after staining their DNA, as described above.
(§4) Similar cell cycle phase distribution studies were performed in AGS, COLO205, and HT-29 cells in response to individual PMFs, with results reported in Tables 11, 12 and 13, respectively.

COLO205 cells = experiment: Cell cycle distribution by flow cytometry; settings: COLO205 cells; for Cell Cycle Distribution G0/G1 / Cell Cycle Distribution G2/M / Cell Cycle Distribution S: 24 h, Table 12
Procedure: as §1, §2, §3, §4

HL-60 cells = experiment: Cell cycle distribution by flow cytometry; settings: for Cell Cycle Distribution G0/G1 / Cell Cycle Distribution G2/M / Cell Cycle Distribution S: 24 h, Table 10
Procedure: as §1, §2, §3

HT-29 cells [1] = experiment: Apoptotic ratio by propidium iodide flow cytometry (AC50); settings: Homo sapiens, read-out: Apoptosis-inducing AC50
Procedure: as §1
The PMF compounds were assayed in vitro for cell growth inhibition and for their ability to induce apoptosis in various human cancer cells, including HL-60, AGS, COLO 205, and HT-29 cells, using methods described in Section 8.4 above. Antiproliferative (IC50) and apoptosis-inducing activity (AC50) of PMFs in the HL-60, AGS, COLO 205, and HT-29 cells are reported in Table 9, where *P<0.05, **P<0.01 and ***P<0.001 indicate statistically significant differences from the control group.

HT-29 cells [2] = experiment: Cell cycle distribution by flow cytometry; settings: for Cell Cycle Distribution G0/G1 / Cell Cycle Distribution G2/M / Cell Cycle Distribution S: 24 h
Procedure: as §1, §3, §4

COc1cc(-c2cc(=O)c3c(OC)c(OC)c(OC)c(OC)c3o2)ccc1O [Compound G, 4′-hydroxy-5,6,7,8,3′-pentamethoxyflavone]
Cell Cycle Distribution G0/G1 (AGS cells; 5 μM): 55.39 ± 0.47
Cell Cycle Distribution G2/M (AGS cells; 5 μM): 16.76 ± 0.86
Cell Cycle Distribution S (AGS cells; 5 μM): 27.86 ± 1.32
Cell Cycle Distribution G0/G1 (AGS cells; 10 μM): 60.42 ± 1.28
Cell Cycle Distribution G2/M (AGS cells; 10 μM): 16.80 ± 1.75
Cell Cycle Distribution S (AGS cells; 10 μM): 22.79 ± 0.47
Cell Cycle Distribution G0/G1 (AGS cells; 25 μM): 68.29 ± 0.95
Cell Cycle Distribution G2/M (AGS cells; 25 μM): 14.39 ± 0.16
Cell Cycle Distribution S (AGS cells; 25 μM): 17.33 ± 0.80
Cell Cycle Distribution G0/G1 (AGS cells; 50 μM): 62.27 ± 0.06
Cell Cycle Distribution G2/M (AGS cells; 50 μM): 22.98 ± 1.90
Cell Cycle Distribution S (AGS cells; 50 μM): 14.78 ± 1.83
Cell Cycle Distribution G0/G1 (AGS cells; 100 μM): 50.27 ± 0.52
Cell Cycle Distribution G2/M (AGS cells; 100 μM): 26.85 ± 1.85
Cell Cycle Distribution S (AGS cells; 100 μM): 22.88 ± 2.38
Cell Cycle Distribution G0/G1 (COLO205 cells; 5 μM): 67.93 ± 0.74
Cell Cycle Distribution G2/M (COLO205 cells; 5 μM): 4.71 ± 0.18
Cell Cycle Distribution S (COLO205 cells; 5 μM): 27.36 ± 0.56
Cell Cycle Distribution G0/G1 (COLO205 cells; 10 μM): 72.87 ± 2.37
Cell Cycle Distribution G2/M (COLO205 cells; 10 μM): 4.51 ± 0.08
Cell Cycle Distribution S (COLO205 cells; 10 μM): 22.64 ± 2.28
Cell Cycle Distribution G0/G1 (COLO205 cells; 25 μM): 73.74 ± 0.51
Cell Cycle Distribution G2/M (COLO205 cells; 25 μM): 6.47 ± 0.93
Cell Cycle Distribution S (COLO205 cells; 25 μM): 19.80 ± 0.42
Cell Cycle Distribution G0/G1 (COLO205 cells; 50 μM): 73.90 ± 0.41
Cell Cycle Distribution G2/M (COLO205 cells; 50 μM): 8.17 ± 0.23
Cell Cycle Distribution S (COLO205 cells; 50 μM): 17.94 ± 0.17
Cell Cycle Distribution G0/G1 (COLO205 cells; 100 μM): 73.05 ± 0.30
Cell Cycle Distribution G2/M (COLO205 cells; 100 μM): 7.61 ± 0.46
Cell Cycle Distribution S (COLO205 cells; 100 μM): 19.35 ± 0.76
Cell Cycle Distribution G0/G1 (HL-60 cells; 5 μM): 41.79 ± 0.80
Cell Cycle Distribution G2/M (HL-60 cells; 5 μM): 4.80 ± 6.73
Cell Cycle Distribution S (HL-60 cells; 5 μM): 53.41 ± 5.93
Cell Cycle Distribution G0/G1 (HL-60 cells; 10 μM): 43.26 ± 2.02
Cell Cycle Distribution G2/M (HL-60 cells; 10 μM): 12.61 ± 0.11
Cell Cycle Distribution S (HL-60 cells; 10 μM): 44.15 ± 2.12
Cell Cycle Distribution G0/G1 (HL-60 cells; 25 μM): 55.71 ± 0.15
Cell Cycle Distribution G2/M (HL-60 cells; 25 μM): 8.39 ± 0.16
Cell Cycle Distribution S (HL-60 cells; 25 μM): 35.90 ± 0.01
Cell Cycle Distribution G0/G1 (HL-60 cells; 50 μM): 52.35 ± 1.09
Cell Cycle Distribution G2/M (HL-60 cells; 50 μM): 12.18 ± 3.83
Cell Cycle Distribution S (HL-60 cells; 50 μM): 35.48 ± 4.91
Cell Cycle Distribution G0/G1 (HL-60 cells; 100 μM): 65.44 ± 5.42
Cell Cycle Distribution G2/M (HL-60 cells; 100 μM): 11.21 ± 8.27
Cell Cycle Distribution S (HL-60 cells; 100 μM): 23.35 ± 13.67
AC50 (HT-29 cells [1]): > 100 µM
Cell Cycle Distribution G0/G1 (HT-29 cells [2]; 5 μM): 56.92 ± 1.98
Cell Cycle Distribution G2/M (HT-29 cells [2]; 5 μM): 12.42 ± 0.44
Cell Cycle Distribution S (HT-29 cells [2]; 5 μM): 30.66 ± 2.43
Cell Cycle Distribution G0/G1 (HT-29 cells [2]; 10 μM): 58.01 ± 1.22
Cell Cycle Distribution G2/M (HT-29 cells [2]; 10 μM): 9.97 ± 2.10
Cell Cycle Distribution S (HT-29 cells [2]; 10 μM): 32.03 ± 0.88
Cell Cycle Distribution G0/G1 (HT-29 cells [2]; 25 μM): 74.38 ± 1.68
Cell Cycle Distribution G2/M (HT-29 cells [2]; 25 μM): 6.18 ± 0.06
Cell Cycle Distribution S (HT-29 cells [2]; 25 μM): 19.55 ± 1.59
Cell Cycle Distribution G0/G1 (HT-29 cells [2]; 50 μM): 84.63 ± 1.16
Cell Cycle Distribution G2/M (HT-29 cells [2]; 50 μM): 7.99 ± 0.01
Cell Cycle Distribution S (HT-29 cells [2]; 50 μM): 7.39 ± 1.16
Cell Cycle Distribution G0/G1 (HT-29 cells [2]; 100 μM): 75.28 ± 1.61
Cell Cycle Distribution G2/M (HT-29 cells [2]; 100 μM): 14.63 ± 0.21
Cell Cycle Distribution S (HT-29 cells [2]; 100 μM): 10.11 ± 1.82
Cell cycle arrest, in words (HT-29 cells [2]; 5-100 μM, 24 h exposure): significant accumulation of cells in G1 phase

COc1ccc(-c2cc(=O)c3c(O)c(OC)c(OC)c(OC)c3o2)cc1O [Compound K, 5,3′-dihydroxy-6,7,8,4′-tetramethoxyflavone]
G2/M cell cycle arrest, in words (AGS cells): strongly potentiated the G2/M cell cycle arrest
Cell Cycle Distribution G0/G1 (AGS cells; 5 μM): 51.75 ± 0.73
Cell Cycle Distribution G2/M (AGS cells; 5 μM): 13.65 ± 0.18
Cell Cycle Distribution S (AGS cells; 5 μM): 34.61 ± 0.91
Cell Cycle Distribution G0/G1 (AGS cells; 10 μM): 22.20 ± 1.56
Cell Cycle Distribution G2/M (AGS cells; 10 μM): 48.12 ± 1.35
Cell Cycle Distribution S (AGS cells; 10 μM): 26.69 ± 0.91
Cell Cycle Distribution G0/G1 (AGS cells; 25 μM): 42.63 ± 0.05
Cell Cycle Distribution G2/M (AGS cells; 25 μM): 34.57 ± 0.62
Cell Cycle Distribution S (AGS cells; 25 μM): 22.81 ± 0.51
Cell Cycle Distribution G0/G1 (AGS cells; 50 μM): 43.90 ± 2.37
Cell Cycle Distribution G2/M (AGS cells; 50 μM): 35.67 ± 2.29
Cell Cycle Distribution S (AGS cells; 50 μM): 20.44 ± 0.08
Cell Cycle Distribution G0/G1 (AGS cells; 100 μM): 50.77 ± 1.01
Cell Cycle Distribution G2/M (AGS cells; 100 μM): 31.20 ± 0.43
Cell Cycle Distribution S (AGS cells; 100 μM): 18.04 ± 1.45
G2/M cell cycle arrest, in words (COLO205 cells): strongly potentiated the G2/M cell cycle arrest
Cell Cycle Distribution G0/G1 (COLO205 cells; 5 μM): 57.68 ± 0.42
Cell Cycle Distribution G2/M (COLO205 cells; 5 μM): 7.08 ± 0.20
Cell Cycle Distribution S (COLO205 cells; 5 μM): 34.52 ± 0.21
Cell Cycle Distribution G0/G1 (COLO205 cells; 10 μM): 65.81 ± 0.83
Cell Cycle Distribution G2/M (COLO205 cells; 10 μM): 1.75 ± 0.47
Cell Cycle Distribution S (COLO205 cells; 10 μM): 32.44 ± 2.28
Cell Cycle Distribution G0/G1 (COLO205 cells; 25 μM): 66.63 ± 1.51
Cell Cycle Distribution G2/M (COLO205 cells; 25 μM): 13.31 ± 1.91
Cell Cycle Distribution S (COLO205 cells; 25 μM): 20.06 ± 0.40
Cell Cycle Distribution G0/G1 (COLO205 cells; 50 μM): 42.30 ± 1.12
Cell Cycle Distribution G2/M (COLO205 cells; 50 μM): 23.42 ± 0.83
Cell Cycle Distribution S (COLO205 cells; 50 μM): 34.29 ± 0.29
Cell Cycle Distribution G0/G1 (COLO205 cells; 100 μM): 43.58 ± 2.29
Cell Cycle Distribution G2/M (COLO205 cells; 100 μM): 22.85 ± 2.96
Cell Cycle Distribution S (COLO205 cells; 100 μM): 33.57 ± 0.67
G2/M cell cycle arrest, in words (HL-60 cells): strongly potentiated the G2/M cell cycle arrest
Cell Cycle Distribution G0/G1 (HL-60 cells; 5 μM): 0.56 ± 0.76
Cell Cycle Distribution G2/M (HL-60 cells; 5 μM): 35.91 ± 0.11
Cell Cycle Distribution S (HL-60 cells; 5 μM): 60.54 ± 4.90
Cell Cycle Distribution G0/G1 (HL-60 cells; 10 μM): 0.38 ± 0.06
Cell Cycle Distribution G2/M (HL-60 cells; 10 μM): 54.41 ± 4.77
Cell Cycle Distribution S (HL-60 cells; 10 μM): 45.22 ± 4.83
Cell Cycle Distribution G0/G1 (HL-60 cells; 25 μM): 0.68 ± 0.42
Cell Cycle Distribution G2/M (HL-60 cells; 25 μM): 49.12 ± 2.64
Cell Cycle Distribution S (HL-60 cells; 25 μM): 50.23 ± 3.08
Cell Cycle Distribution G0/G1 (HL-60 cells; 50 μM): 2.63 ± 2.50
Cell Cycle Distribution G2/M (HL-60 cells; 50 μM): 45.05 ± 0.01
Cell Cycle Distribution S (HL-60 cells; 50 μM): 52.33 ± 2.51
Cell Cycle Distribution G0/G1 (HL-60 cells; 100 μM): 3.18 ± 2.62
Cell Cycle Distribution G2/M (HL-60 cells; 100 μM): 30.61 ± 4.64
Cell Cycle Distribution S (HL-60 cells; 100 μM): 66.21 ± 1.72
AC50 (HT-29 cells [1]): > 100 µM
G2/M cell cycle arrest, in words (HT-29 cells [2]): strongly potentiated the G2/M cell cycle arrest
Cell Cycle Distribution G0/G1 (HT-29 cells [2]; 5 μM): 60.57 ± 0.04
Cell Cycle Distribution G2/M (HT-29 cells [2]; 5 μM): 9.87 ± 0.78
Cell Cycle Distribution S (HT-29 cells [2]; 5 μM): 29.71 ± 0.94
Cell Cycle Distribution G0/G1 (HT-29 cells [2]; 10 μM): 57.94 ± 0.50
Cell Cycle Distribution G2/M (HT-29 cells [2]; 10 μM): 11.52 ± 0.27
Cell Cycle Distribution S (HT-29 cells [2]; 10 μM): 30.55 ± 0.77
Cell Cycle Distribution G0/G1 (HT-29 cells [2]; 25 μM): 50.58 ± 1.35
Cell Cycle Distribution G2/M (HT-29 cells [2]; 25 μM): 12.49 ± 0.09
Cell Cycle Distribution S (HT-29 cells [2]; 25 μM): 36.94 ± 1.45
Cell Cycle Distribution G0/G1 (HT-29 cells [2]; 50 μM): 64.13 ± 0.83
Cell Cycle Distribution G2/M (HT-29 cells [2]; 50 μM): 13.14 ± 0.47
Cell Cycle Distribution S (HT-29 cells [2]; 50 μM): 22.73 ± 0.37
Cell Cycle Distribution G0/G1 (HT-29 cells [2]; 100 μM): 47.16 ± 2.59
Cell Cycle Distribution G2/M (HT-29 cells [2]; 100 μM): 36.12 ± 4.37
Cell Cycle Distribution S (HT-29 cells [2]; 100 μM): 16.72 ± 1.73

Source: patent publication US20140039044A1, “Hydroxylated Polymethoxyflavone Compositions” (WLLGEN, INC., priority 2006, published 2014)
